BindingDB's records for patent US20240140938 (Merck Sharp & Dohme, 2024)

Biological target: T1, Diacylglycerol O-acyltransferase 2 (Homo sapiens, UniProt Q96PD7)
T1 sequence (Q96PD7 whole entry): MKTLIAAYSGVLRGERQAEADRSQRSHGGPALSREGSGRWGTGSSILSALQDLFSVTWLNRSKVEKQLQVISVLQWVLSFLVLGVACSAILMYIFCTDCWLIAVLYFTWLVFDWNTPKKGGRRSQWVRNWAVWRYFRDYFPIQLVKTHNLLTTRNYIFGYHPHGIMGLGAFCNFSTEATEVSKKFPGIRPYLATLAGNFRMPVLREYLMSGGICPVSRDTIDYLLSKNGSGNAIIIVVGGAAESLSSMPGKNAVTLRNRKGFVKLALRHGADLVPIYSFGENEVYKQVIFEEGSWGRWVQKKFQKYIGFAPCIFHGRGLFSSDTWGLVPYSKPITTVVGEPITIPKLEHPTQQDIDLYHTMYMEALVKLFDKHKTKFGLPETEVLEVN
Assay: DGAT2 Enzymatic Activity Assay
Protocol: DGAT2 activity was determined by measuring the amount of enzymatic product 13C18-triolein (13C-1,2,3-Tri(cis-9-octadecenoyl)glycerol) using the membrane prep mentioned above. The assay was carried out in ABgene 384-well assay plates in a final volume of 25 μL at rt.

SMILES | IC50 [µM]
CC(C)n1nc(-c2cccc(OC(F)F)c2)c2c1C[C@H](C(=O)NC1(C)CS(=O)(=O)C1)CC2 [US20240140938, Example 26] | 0.319
CN1CCC(n2nc(-c3cccc(OC(F)F)c3)c3c2C[C@H](C(=O)N[C@]2(C)CCS(=O)(=O)C2)CC3)CC1 [US20240140938, Example 72] | > 10
CC(C)n1nc(-c2cccc(-n3cccn3)c2)c2c1C[C@H](C(=O)NC1(C)CS(=O)(=O)C1)CC2 [US20240140938, Example 97] | > 10
CC(C)n1nc(-c2cccc(C(C)(F)F)c2)c2c1C[C@H](C(=O)NC1(C)CS(=O)(=O)C1)CC2 [US20240140938, Example 102] | 8.84
